From patent US20240408064A1, “RAS INHIBITORS, COMPOSITIONS AND METHODS OF USE THEREOF” (GENETOLEAD INC., priority 2021, published 2024)
Where “and” joins values, the source holds several entries; their conditions need not be identical. Identical values can stand only once.

Tests used:
[1] = target: T1, HRas^G12V (Homo sapiens (Human), UniProt P01112, G12V); assay: 19F T2-CPMG NMR score; assay type: binding
Experimental: (§1) All NMR experiments were collected using 3 mm NMR tubes on a 600 MHz Bruker Avance III spectrometer equipped with a QCI helium cryoprobe and a SampleJet sample changer. The buffer used for NMR experiments was 25 mM sodium phosphate pH 7.4, 150 mM NaCl, 5 mM MgCl2, 1 mM TCEP-d16, 10% D2O. Data were processed using Bruker TopSpin.
(§2) Since the fragment library was curated using phosphate buffer, 25 mM sodium phosphate pH 7.4, 150 mM NaCl, 5 mM MgCl2, 1 mM TCEP-d16, 10% D2O Fresh TCEP was used for experiments. Screening was performed using ^1H-decoupled 1D ^19F experiment Bruker experiment (zgfhigqn.2) with 64 scans and a relaxation delay of 5 seconds. 50 μM HRas^G12V and 240 μM of each fragment in pools (mixtures) were used.
(§3) Hit confirmation was performed using the same ^19F experiment as the screen. Ligand-observed 1D ^1H, protein-observed 1D ^1H, ^1H T2-CPMG as well as Saturation Transfer Difference (STD) experiments were also run on the same samples. Ligand-observed 1D ^1H was run using the standard Bruker sequence with excitation sculpting (zgesgp) with a relaxation delay of 10 seconds and 16 scans per spectrum. Protein-observed 1D ^1H was performed using the same sequence with a relaxation delay of 1 second and 256 scans in order to increase the signal-to-noise of the protein resonances, while keeping the experimental time relatively short. The ^1H T2-CPMG experiment employed a modified version of the Bruker 1D ^1H zgesgp experiment with the addition of a CPMG pulse train after the first 90° excitation pulse. Total duration for each spin echo was fixed at 1 ms (τ=500 μs), while the number of echoes in the pulse train was varied according to the total time (T). The number of scans for each spectrum was 4 and eight delay times were run on each sample, ranging from 1 ms to 800 ms.
Because of its power to probe the intrinsically weak interactions (Kd) between targets and low-molecular weight fragments, NMR fragment-based lead discovery (FBLD) is a very useful biophysical method in early stage drug discovery, especially for challenging target proteins; including those with shallow binding pockets. Since FBLD screens are performed using low-molecular weight compounds (fragments) with lower structural complexity, the same chemical space can be covered using a smaller number of drug-like fragments versus use of large libraries of higher-molecular weight lead-like compounds as in high throughput screening (HTS) campaigns. Therefore, FBLD has a much higher hit rate than HTS using only several hundred to several thousand compounds in comparison with approximately 1 million compounds for HTS. Also, the small size of the compounds screened in FBLD means a better chance to fully match the interactions with small or transient pockets within the target protein, where these less tractable pockets cannot be accessed with standard classical HTS methods. […] We expect this methodology to be more advantageous than classical HTS methods for expediting the time from hit to lead (H2L) and allows for rapid access to high quality leads with lower attrition rates in subsequent lead optimization (LO) campaigns toward pre-clinical candidate selection. FBLD screening by NMR involves a “consensus binding” approach where several distinct NMR experiments (DLB, STD, CPMG) are applied along with a free-state aggregation detection method (T2-CPMG) to rank the compounds for their affinity to the receptor (HRAS in this case) whilst simultaneously monitoring the solution behavior and critical quality attributes of each compound. The latter helps to eliminate artifact binders which are highly problematic. We performed a fluorine screen involving 461 compounds that were derived from a highly curated fragment library. Moreover, two-dimensional ^15N HSQC NMR was also used to validate ligand-binding sites on the target protein. […]

[2] = target: T1, HRas^G12V; assay: 19F DLB (ligand-observed 19F NMR) score; assay type: binding; parameters: scale not given here
Experimental: as §1, §2
as §3, with “ms. […]” for “ms.”

T1 sequence (P01112 1-166 G12V): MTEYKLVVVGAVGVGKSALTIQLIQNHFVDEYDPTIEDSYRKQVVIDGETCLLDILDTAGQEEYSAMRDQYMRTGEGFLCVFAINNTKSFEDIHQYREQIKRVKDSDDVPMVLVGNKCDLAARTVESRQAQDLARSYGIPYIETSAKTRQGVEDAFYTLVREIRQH

Row | SMILES | 19F T2-CPMG Score [1] | 19F DLB Score [2]
1 | O=C1C[C@H](c2c[nH]c3cc(F)ccc23)C(=O)N1 (single isomer, unassigned) [Compound 11039] | 39.34 | 3.59
2 | O=C1C[C@@H](c2c[nH]c3cc(F)ccc23)C(=O)N1 (single isomer, unassigned) [Compound 11040] |  | 3.49
3 | O=C(NCCc1c[nH]c2cc(F)ccc12)[C@H]1CCCO1 [Compound 10013] | 12.62 | 2.09
4 | O=C(Cc1c[nH]c2cc(F)ccc12)N1CCOCC1 [Compound 10016] |  | 4.63 and 2.64
5 | CN1CCN(CCNC(=O)Cc2c[nH]c3cc(F)ccc23)CC1 [Compound 10020] | 14.34 | 1.62
6 | COc1cccc(NC(=O)Cc2c[nH]c3cc(F)ccc23)c1 [Compound 10030] | 18.47 | 3.05
7 | O=C(NCCc1c[nH]c2cc(F)ccc12)c1ccc(F)cc1 [Compound 10039] | 20.33 | 0.96
8 | O=C(Cc1c[nH]c2cc(F)ccc12)Nc1ccc2[nH]ccc2c1 [Compound 10042] | 37.91 | 2.72
9 | Fc1ccc2c(CNc3ccccc3)c[nH]c2c1 [Compound 10052, N-((6-fluoro-1H-indol-3-yl)methyl) aniline] | 25.51 | 4.75
10 | O=C(Cc1c[nH]c2cc(F)ccc12)Nc1cccnc1 [Compound 10058] | 21.6 | 3.07
11 | O=C(Cc1c[nH]c2cc(F)ccc12)Nc1ccc2c(c1)OCO2 [Compound 10059] | 18.99 | 3.22
12 | CN1CCN(C(=O)Cc2c[nH]c3cc(F)ccc23)CC1 [Compound 10065] | 22.6 | 2.88
13 | CC(C)N1CCN(C(=O)Cc2c[nH]c3cc(F)ccc23)CC1 [Compound 10068] | 10.72 | 2.43
14 | O=C(Cc1c[nH]c2cc(F)ccc12)N1CC2(COC2)C1 [Compound 10069] | 21.31 | 2.54
15 | COCC1CN(C(=O)Cc2c[nH]c3cc(F)ccc23)C1 [Compound 10075] | 7.09 | 1.77
16 | CC1CN(C(=O)C(C#N)c2c[nH]c3cc(F)ccc23)C1 (stereo not drawn) [Compound 11033] |  | 6.06
17 | CC(=O)Nc1cccc(NC(=O)C(C#N)c2c[nH]c3cc(F)ccc23)c1 (stereo not drawn) [Compound 11035] |  | 5.34
18 | O=C(C1CCNCC1)N1CCC(c2c[nH]c3cc(F)ccc23)C1 (stereo not drawn) [Compound 11038] |  | 2.37
19 | O=C(C1CCNC1)N1CCC(c2c[nH]c3cc(F)ccc23)CC1 (stereo not drawn) [Compound 11046] |  | 3.58
20 | O=C(C1CCCNC1)N1CCC(c2c[nH]c3cc(F)ccc23)CC1 (stereo not drawn) [Compound 11048] |  | 3.29
21 | CN(C)Cc1cc2ccc(F)cc2[nH]1 [Compound 11049] |  | Non conclusive
22 | O=C(O)CCc1c[nH]c2cc(F)ccc12 [Compound 11050] |  | Non conclusive
23 | O=C(O)CC(c1ccc(F)cc1F)c1c[nH]c2cc(F)ccc12 (stereo not drawn) [Compound 11056] |  | Non conclusive
24 | COc1ccc(C(CC(=O)O)c2c[nH]c3cc(F)ccc23)cc1 (stereo not drawn) [Compound 11057] |  | Non conclusive
25 | O=C(O)CC(c1cccc(F)c1)c1c[nH]c2cc(F)ccc12 (stereo not drawn) [Compound 11059] |  | Non conclusive
26 | O=C(O)C(NCc1ccccc1)c1c[nH]c2cc(F)ccc12 (stereo not drawn) [Compound 11060] |  | Non conclusive
27 | O=C(O)C(NCc1cncc(Br)c1)c1c[nH]c2cc(F)ccc12 (stereo not drawn) [Compound 11061] |  | Non conclusive
28 | O=C(O)C(c1c[nH]c2cc(F)ccc12)N1CCC(O)CC1 (stereo not drawn) [Compound 11062] |  | Non conclusive
29 | O=C(O)C(NCc1ccc(O)cc1)c1c[nH]c2cc(F)ccc12 (stereo not drawn) [Compound 11063] |  | Non conclusive
